test system: P. falciparum 3D7 growth, pLDH absorbance; experiment: P. falciparum 3D7 growth inhibition, dose response, strain 3D7 (AID 2305)

Row | Structure (SMILES) | IC50
1 | CC(C)(C)c1ccc(NC(=O)c2cccc(CN3CCCN(CC4CCCCC4)CC3)c2)cc1 | 740 nM
2 | Cc1ccc2c(-c3ccc([N+](=O)[O-])o3)cc(C)nc2c1 | 40 nM
3 | Cc1c(C(=O)[C@@H]2C[C@H]2CN2CCC(N3CCCCC3)CC2)sc2ccccc12 | 1020 nM
4 | c1ccc(-c2nc3ccccc3[nH]2)c(Nc2ccnc3cc(-c4nccs4)ccc23)c1 | 740 nM
5 | O=S(=O)(NCCN1CCCC1)c1ccc(-c2ccc(CNCc3ccsc3)cc2)s1 | 830 nM
6 | COc1ccc(-c2cccc(NC(=O)c3cccc(C#N)c3)c2)cc1CN1CCN(C)CC1 | 930 nM
7 | O=C(Nc1ccc(Cl)c(Cl)c1)Nc1cc(C(F)(F)F)ccc1Cl | 1440 nM
8 | COc1cc(CN=C(Nc2ccc(-c3ccccc3)cc2)Nc2ccc(C#N)cc2O)cc(OC)c1 | 720 nM
9 | O=C(Nc1cccc(-c2cccc(-c3nc4ccc(C(F)(F)F)cc4[nH]3)c2)c1)c1cccnc1Cl | 660 nM
10 | Cc1ccc(N2C(N)=NC(N)=NC2(C)C)cc1 | 40 nM
11 | NC(=O)c1cc(-c2ccccc2)cc2c(C3CCC(NCc4ccccc4)C3)c[nH]c12 (configuration not stated) | 910 nM
12 | COc1ccc(-c2ccc(NC(=O)c3cccc(C#N)c3)cc2)cc1CN(C)C | 730 nM
13 | Cc1cc(Cl)c(S(=O)(=O)NC2CCCC2)cc1OCC(=O)NC1CCCCC1 | 380 nM
14 | CC(NC(C)c1cccc(Cl)c1)C(=O)Nc1cc(C(F)(F)F)ccc1N1CCOCC1 (configuration not stated) | 1090 nM
15 | O=C(Nc1nc2ccc(Cl)cc2s1)c1csnn1 | 790 nM
16 | Nc1ccc(-c2cnc3[nH]cc(-c4ccc(C(=O)O)cc4)c3c2)cn1 | 960 nM
17 | COc1ccc2nc(-c3ccc(F)cc3)cc([C@@H](O)[C@@H]3C[C@@H]4CCN3CC4C=NO)c2c1 (some centres not stated) | 250 nM
18 | Cc1ccc(-n2cc(CNCCCn3ccnc3)c(-c3cccc(C)c3)n2)cc1 | 770 nM
19 | COc1cccc2cc(C(=O)N[C@@H](CC(C)C)C(=O)N[C@H](/C=N/N(C)C(=O)OC(C)(C)C)Cc3ccccc3)oc12 | 260 nM
20 | Cn1nccc1C(=O)NCCNCc1cccc(-c2ccc(-c3nc4ccccc4[nH]3)s2)c1 | 300 nM
21 | Cc1c2ccncc2c(C)c2c1[nH]c1cc(Cc3ccccc3)c(O)cc12 | 150 nM
22 | CN(C)Cc1ccc(-c2cccc(Nc3nccc(NCC(O)c4ccccc4)n3)c2)cc1 (configuration not stated) | 370 nM
23 | Cc1[nH]c(C)c(-c2ccc(Oc3ccc(O)cc3)cc2)c(=O)c1Cl | 1040 nM
24 | CCOC(=O)C1=C(C)N=c2sc(=Cc3cc(Cl)ccc3O)c(=O)n2C1c1ccc2c(c1)OCO2 (configuration not stated) | 710 nM
25 | CCC(C)NCc1c(O)ccc2c(CNC(C)CC)c(O)ccc12 (configuration not stated) | 590 nM

Row | Structure (SMILES) | IC50
26 | c1ccc(CNCc2cccc(-c3csc(-c4nc5ccccc5[nH]4)c3)c2)cc1 | 460 nM
27 | CCC(C)OC(=O)C1=C(C)NC2=C(C(=O)CC(c3ccc(OC)c(OC)c3)C2)C1c1cccc(O)c1 (configuration not stated) | 190 nM
28 | O=C(c1c(-c2[nH]c3ccccc3c2C(=O)C(F)(F)F)[nH]c2ccccc12)C(F)(F)F | 750 nM
29 | Cc1cc(N[C@@H](CC(C)C)C(=O)Nc2ccccc2)nc(NCC2CCCCC2)n1 | 870 nM
30 | Cc1ccc2c(=O)cc(CCc3cccc(F)c3F)n(CC(=O)N(Cc3ccc(-c4ccc(C(F)(F)F)cc4)cc3)C3CCN(C)CC3)c2n1 | 1260 nM
31 | N#CCCN1CCN(Cc2cccc(-c3ccc(-c4nc5ccc(C(F)(F)F)cc5[nH]4)cc3)c2)CC1 | 740 nM
32 | Cc1cc(NCCC(=O)Nc2ccccc2)nc(NCCc2cccnc2)n1 | 1240 nM
33 | O=C(NCc1cccc(C(F)(F)F)c1)[C@@H]1CCCN1C(=O)c1ccc(O)c(-c2ccc(Cl)c(Cl)c2)c1 | 790 nM
34 | C=CCN(C(=O)c1ccc(Cl)c([N+](=O)[O-])c1)c1nc(-c2ccccc2)cs1 | 400 nM
35 | Cc1ccc(NC(=S)NC2CCN(CCCCCNC(=O)/C=C/c3ccc(Cl)c(Cl)c3)CC2)cc1Cl | 990 nM
36 | CCCN(c1ccc(O)c(CN2CCCCC2)c1)c1ccc([N+](=O)[O-])cn1 | 800 nM
37 | COc1cc(/C=C/C(=O)NC2CCC(N3CCC(c4ccccc4C)CC3)CC2)cc(OC)c1 (configuration not stated) | 980 nM
38 | O=C(NC1CCCCCC1)[C@@H]1CCCN1C(=O)c1ccc(O)c(-c2ccc(Cl)c(Cl)c2)c1 | 340 nM
39 | COc1ccc2ncc(F)c([C@@H](O)CN3CCC(NCc4cc5c(cn4)OCS5)CC3)c2c1 | 140 nM
40 | COc1ccc2nccc([C@@H](O)CN3CCC(NCCNc4ccccn4)CC3)c2c1 | 740 nM
41 | COCCNCc1ccc(-c2ccc(CNC3CCN(Cc4ccccc4)CC3)cc2)cc1 | 670 nM
42 | COc1cc(Cl)c(C)cc1-n1cc(C(=O)c2cc(Br)ccc2O)cc(C#N)c1=O | 870 nM
43 | CCc1ccc(C2CCN(CCCCNC(=O)c3ccc(NC(=O)c4ccc(Cl)cc4)cc3)CC2)c(OCCO)c1 | 1390 nM
44 | CCCC(=O)c1c(O)c2ccccc2oc1=O | 260 nM
45 | CCc1cccc(NC(=O)/C=C/c2ccc3c(c2)CN(C)CC3)c1 | 770 nM
46 | c1ccc(C(c2ccccc2)N2CCC(NCc3ccc(OCCCN4CCCCC4)cc3)CC2)cc1 | 560 nM
47 | O=S(=O)(Nc1cc2c(cc1OCc1ccccc1)CCN(C1CCC1)CC2)c1ccc(-c2ccc(Cl)cc2)cc1 | 1140 nM
48 | CC(C)C[C@@H](/C=N/N1CC(=O)NC1=O)NC(=O)[C@H](CC(C)C)NC(=O)c1ccc(OCCN2CCOCC2)cc1 | 270 nM
49 | CN1CC=C(C=Cc2c[nH]c3ccccc23)CC1 | 1340 nM
50 | CC(=O)Oc1cc(OCc2ccccc2)c(OC(C)=O)c(OCc2ccccc2)c1 | 410 nM

Row | Structure (SMILES) | IC50
51 | CCCCCOc1ccc(C=NNc2nc(-c3ccccc3)cc(=O)[nH]2)cc1 | 890 nM
52 | CSc1ccc(CN2CCC(NC(=O)c3ccc(-c4ccc(N(C)C)cc4)s3)CC2)cc1 | 1500 nM
53 | Oc1ccc(CCNc2nc(N/N=C/c3ccc(Cl)cc3)nc(N3CCNCC3)n2)cc1 | 580 nM
54 | COc1cc(Cc2cnc(N)nc2N)cc(OC)c1OC | 750 nM
55 | CSc1ccccc1NC(=S)NC1CCN(CCCCCNC(=O)/C=C/c2ccc(Cl)c(Cl)c2)CC1 | 780 nM
56 | NC(N)=Nc1ccc(OCCCCCOc2ccc(N=C(N)N)c(Cl)c2)cc1Cl | 860 nM
57 | Cn1cnc(CCNC(=O)c2cccc(-c3ccc(-c4nc5ccc(F)cc5[nH]4)cc3)c2)c1 | 940 nM
58 | Cc1ccc(C)c(S(=O)(=O)Nc2ccc(Br)cc2C(=O)Nc2cccc(C(F)(F)F)c2)c1 | 1210 nM
59 | COC(=O)c1c(C#N)c(OC)cc(O)c1CSC[C@@H](CN1CCCCC1)Nc1nc(-c2ccc([N+](=O)[O-])cc2)cs1 | 1270 nM
60 | Cc1cccc2c(/C=C/C(=O)NC3CCC(CCN4CCc5ccc(C#N)cc5CC4)CC3)c[nH]c12 (configuration not stated) | 1220 nM
61 | COC(=O)c1cccc(CNCc2ccc(-c3ccc(-c4nc5c(C)cccc5[nH]4)cc3)cc2)c1 | 280 nM
62 | NC1CCCN(Cc2ccc(-c3cccc(-c4nc5ccc(F)cc5[nH]4)c3)cc2)C1 (configuration not stated) | 640 nM
63 | OC1(Cc2ccccc2)CCN(Cc2cccc(-c3c[nH]c4nc(NC5CCCC5)ncc34)c2)CC1 | 930 nM
64 | COc1cc(O)c2c(=O)c(OC)c(-c3cccc(Cl)c3OC3O[C@H](CO)[C@@H](O)[C@H](O)[C@H]3O)oc2c1OC (some centres not stated) | 770 nM
65 | CC(=O)c1ccc(NC(=O)NNC(=O)c2ccc(CCN3CCC(c4nc(COCC(F)(F)F)c(-c5ccc(F)cc5)o4)CC3)cc2)cc1 | 830 nM
66 | COc1cc2c(cc1OCCN1CCC(N3CCCCC3)CC1)N(C(=O)/C=C/c1ccccc1OC(F)(F)F)CC2 | 590 nM
67 | Cc1ccc(CC(C)NC[C@H](O)c2cccc(Cl)c2)cc1 (some centres not stated) | 860 nM
68 | COc1ccc(CNc2nc(NCCc3ccccc3)c3cc(OC)c(OC)cc3n2)cc1OC | 180 nM
69 | COc1c(CN2CCOCC2)cccc1-c1cc2c(-c3ccc(C(=O)O)c(C(C)C)c3)ccnc2[nH]1 | 740 nM
70 | O=C(Nc1ccc(CN2CCN(S(=O)(=O)c3ccc(Cl)s3)CC2)cc1)c1cccs1 | 890 nM
71 | CC(C)(C)c1ccc(N2C(N)=NC(N)=NC2(C)C)cc1Cl | 10 nM
72 | CCNc1cc(C(=O)N[C@@H](Cc2ccccc2)[C@H](O)CNC23CCC(CC2)CC3)cc(N2CCCCS2(=O)=O)c1 | 60 nM
73 | COc1ccc(CNC(=O)NC2CCN(c3ccnc(Nc4ccc(F)cc4)n3)CC2)cc1 | 1050 nM
74 | COc1ccc(Cc2c(N)nc3nc(N)nc(N)c3c2C)cc1 | 190 nM
75 | CN(c1ccc2c(c1)nc(Nc1cc(C(C)(C)C)on1)n2C)c1ccnc(Nc2ccc(CS(C)(=O)=O)cc2)n1 | 900 nM

Row | Structure (SMILES) | IC50
76 | CN(CCN(C)CC(O)c1ccc(Cl)c(Cl)c1)CC(O)c1ccc(Cl)c(Cl)c1 (configuration not stated) | 1100 nM
77 | O=C(Nc1ccc(Cl)c(Cl)c1)Nc1ccc2nccc(N3CCNCC3)c2c1 | 260 nM
78 | COc1cc(Cc2cnc(N)nc2N)cc(OCCn2ccccc2=O)c1OC | 770 nM
79 | CCc1cn2c3c(cc(C(=O)N[C@@H](Cc4cccc(Cl)c4)[C@H](O)CNC4CCCCC4)cc13)N(C)S(=O)(=O)CC2 | 60 nM
80 | O=S(=O)(Nc1ccc(CCN2CCC(N3CCCCC3)CC2)cc1)c1ccc2ccccc2c1 | 1010 nM
81 | COc1ccc(C(=O)COc2cccc(/C=C/C(=O)O)c2)cc1OC | 1320 nM
82 | CCC(C)NS(=O)(=O)c1ccc2nc(Nc3ccc(C)cc3)n(C3CCCCC3C)c2c1 (configuration not stated) | 590 nM
83 | CCOC(=O)c1c(NC(NC(=O)c2ccc(C(C)(C)C)cc2)C(Cl)(Cl)Cl)sc2c1CCCC2 (configuration not stated) | 810 nM
84 | COc1ccc2c(C)cc(NCCCN(C)C)nc2c1 | 1100 nM
85 | Cc1ccc(C(=O)Nc2ccc(F)cc2)cc1-c1nc(NC2CC(C)(C)NC(C)(C)C2)nc2c1ccc(=O)n2-c1c(F)cccc1F | 680 nM
86 | Cc1cc(C(=O)Nc2ccc3c(c2)CCN3C2CCN(Cc3csc4ccccc34)C2)no1 (configuration not stated) | 120 nM
87 | Cc1ccc(O)cc1Nc1ccnc2cc(-c3ccccc3)ccc12 | 1070 nM
88 | OCC1CCN(Cc2cccc(C#Cc3cc4ncnc(Nc5ccc(OCc6cccc(F)c6)c(Cl)c5)c4s3)n2)CC1 | 550 nM
89 | Cc1cc(Cl)ccc1NC(=O)NCCCCCN1CCC(c2c[nH]c3ccccc23)CC1 | 1010 nM
90 | Cc1nc(-c2nc(NCc3ccncc3)ncc2-c2ccsc2)sc1C | 990 nM
91 | CCOc1cc(Cl)c(C(C)NC(=O)c2ccccc2)cc1OCC (configuration not stated) | 880 nM
92 | Cn1cncc1C(=O)Nc1cccc(-c2cccc(-c3nc4ccc(C(F)(F)F)cc4[nH]3)c2)c1 | 200 nM
93 | Cc1[nH]nc2cc(Nc3ccnc(Nc4cccc(CN5CCOCC5)c4)n3)ccc12 | 1580 nM
94 | CN(C)CCNc1cc(-c2ccc3ccccc3c2)nc2ccccc12 | 350 nM
95 | Cc1ccc(Nc2nc(N)c3ccccc3n2)cc1 | 840 nM
96 | Cc1cc(CN2CC[C@H](NC(=O)c3ccc(Cl)c(Cl)c3)C2)ccc1OCCN1CCCC1 | 1160 nM
97 | CN(CCN)Cc1cccc(-c2cccc(-c3nc4ccc(C(F)(F)F)cc4[nH]3)c2)c1 | 510 nM

From PubChem BioAssay AID2305 (GlaxoSmithKline (GSK), 2010)
